From EP0506748B1, “AMINO ACIDS, PEPTIDES OR DERIVATIVES THEREOF COUPLED TO FATS” (COMMONWEALTH SCIENTIFIC AND INDUSTRIAL RESEARCH ORGANISATION, priority 1989, dated 1991)

Experiments:
U937 cells = assay: 3H-thymidine incorporation (mitogenic effect) in U937 cells; format: cell-based, human; conditions: for Thymidine incorporation of the U937 cells: U937 human monocyte-like histiocytic lymphoma, result in words, relative to control or to Z-Ala-TRIS-Tripalmitate
Protocol: (§1) ^3H-thymidine incorporation experiments were carried out in Linbro-Titertek microtitre plates (Flow Laboratories, Inc., U.S.A.) following the method of L. Bradley in "Selected Methods of Cellular Immunology (1980) Eds. B.B. Mishell and S.M. Shiigi; Publisher. W.H. Freeman and Co., U.S.A. pp156. The tests were carried out externally by Dr. D. Rathjen of Peptide Technology Ltd. Dee Why, N.S.W.
(§2) Cell lines tested were:- • 1. RD10; a B-cell lymphoma (obtained from the Centre for Immunology, Sydney University, Sydney, NSW. • 2. U937; a human monocyte-like3 histiocytic lymphoma (source: American Tissue Culture Collection).
(§3) RD10 cells (at a cell density 5x10^s/ml, 100 ul/well) were cultured for 20 hours at 37°C with 5% C02 in RPMI 1640 medium, supplemented with 10% Fetal Calf. Serum. Samples to be tested were mixed and sonicated with this medium at a concentration of 5000, 500, 50 and 5 ug/ml and 100 ul aliquots added to the cells. The cells were pulsed with 0.5 uCi/well of ^3H-thymidine and the plates incubated for four more hours before harvesting (Titertek Skatron harvester, Lier, Norway). Incorporated radioactivity was measured by liquid scintillation counting. All assays were performed in triplicate.

RD10 cells = assay: 3H-thymidine incorporation (mitogenic effect) in RD10 cells; format: cell-based; conditions: RD10 B-cell lymphoma
Protocol: as §1, §2, §3

trypsin = target: T1, trypsin (Bos taurus, UniProt P00760); assay: Protease treatment: digestion with trypsin, followed by HPLC; format: biochemical; conditions: TPCK trypsin, enzyme/substrate ratio 1:50, 0.2 M ammonium hydrogen carbonate, 37°C; product Z-Leu-Arg-OH
T1 sequence (P00760 24-246): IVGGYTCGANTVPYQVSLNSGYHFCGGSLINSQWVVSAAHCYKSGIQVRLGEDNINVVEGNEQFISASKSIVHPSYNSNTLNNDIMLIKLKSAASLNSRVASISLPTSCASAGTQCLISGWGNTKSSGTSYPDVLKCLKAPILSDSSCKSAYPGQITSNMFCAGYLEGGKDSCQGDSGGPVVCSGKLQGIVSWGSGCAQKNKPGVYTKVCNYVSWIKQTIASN
Protocol: Z-Gly-TRIS and Z-Ala-TRIS were incubated with papain, and Z-Leu-Arg-TRIS with trypsin, to test that the action of proteolytic enzymes could regenerate the starting compounds Z-Gly-OH, Z-Ala-OH and Z-Leu-Arg-OH respectively.
• a) Papain. Z-Ala-TRIS in 50 mmolar phosphate buffer pH 6.5 (650 ul) , 20 mM ethylene-diamine-tetraacetic acid (100 ul) and water to 1 ml. Activated papain (5mg/ml) was added to a final enzyme/substrate ratio of 1:50. The reaction was followed by HPLC on C18 reverse phase columns and the hydrolysis product identified by co-chromatography with standards. Blanks were incubated as above using water instead of enzyme solution. • b) Trypsin. Z-Leu-Arg-TRIS was incubated at a concentration between 2 and 10 mg/ml in 0.2 M ammonium hydrogen carbonate. Freshly prepared TPCK trypsin (1 mg/ml in water) was added to the solution giving a final enzyme/substrate ratio of 1:50. Samples were incubated at 37°C and aliquots examined by reverse phase HPLC. Additional amounts of enzyme were added as required.

hydrolysis with trypsin (trypsin) | SMILES | Thymidine incorporation of the U937 cells (U937 cells) | cytotoxic effects in U937 cells (U937 cells; at higher concentrations, from thymidine incorporation) | ^3H-thymidine uptake by RD10 cells, increase in cell proliferation compared to control (RD10 cells; samples at 5000, 500, 50 and 5 ug/ml, 20 hours culture, 4 hours pulse, triplicate) [fold] | ^3H-thymidine uptake by RD10 cells, response compared with Z-Ala-TRIS-Tripalmitate (RD10 cells; result in words)
– | CCCCCCCCCCCCCCCC(=O)OCC(COC(=O)CCCCCCCCCCCCCCC)(COC(=O)CCCCCCCCCCCCCCC)NC(=O)C(C)NC(=O)OCc1ccccc1 (stereo not drawn) [Z-Ala-TRIS-Tripalmitate, Z-Ala-TRIS-TRIPALMITATE] | close to control | slight cytotoxic effects | 3.4 | –
slowly | CC(C)C[C@H](NC(=O)OCc1ccccc1)C(=O)N[C@@H](CCCNC(=N)N)C(=O)NC(CO)(CO)CO [Z-Leu-Arg-TRIS] | – | – | – | –
– | CCCCCCCCCCCCCCCC(=O)OCC(COC(=O)CCCCCCCCCCCCCCC)(COC(=O)CCCCCCCCCCCCCCC)NC(=O)C(C)N (stereo not drawn) [Ala-TRIS-Tripalmitate, Ala-TRIS-TRIPALMITATE] | slightly diminished responses | – | – | slightly diminished response
